Test results published in BindingDB's records for doi:10.1021/acschembio.6b00747 (The University of Kansas, 2017).

Tests used:
[1] = target: Heat shock protein HSP 90-alpha (Homo sapiens, UniProt P07900); test: Fluorescence Polarization (FP) Assay; conditions: pH 7.3
Experimental: (§1) Assay buffer (25 μL, 20 mM HEPES at pH 7.3, 50 mM KCl, 5 mM MgCl2, 1 mM DTT, 20 mM Na2MoO4, 0.01% NP-40, and 0.5 mg mL−1 BGG) was added to a 96-well plate (black well, black bottom) followed by the desired compound at the indicated final concentrations in DMSO (1% DMSO final concentration). Subsequently, 10 nM recombinant cGrp94/Hsp90α and 6 nM FITC-GDA were added in 50 and 25 μL assay buffer respectively, resulting in a 100 μL final volume. Plates were incubatedfor 5 h at 4 °C on a rocker. […] Percent FITC-GDA bound was determined by assigning the DMSO millipolarization unit (mP) value as the 100% bound value and 0% for FITC-GDA in assay buffer without any protein.

[2] = target: Endoplasmin (Homo sapiens, UniProt P14625); test: Fluorescence Polarization (FP) Assay; conditions: pH 7.3
Experimental: as §1

Endoplasmin, sequence (P14625 whole entry): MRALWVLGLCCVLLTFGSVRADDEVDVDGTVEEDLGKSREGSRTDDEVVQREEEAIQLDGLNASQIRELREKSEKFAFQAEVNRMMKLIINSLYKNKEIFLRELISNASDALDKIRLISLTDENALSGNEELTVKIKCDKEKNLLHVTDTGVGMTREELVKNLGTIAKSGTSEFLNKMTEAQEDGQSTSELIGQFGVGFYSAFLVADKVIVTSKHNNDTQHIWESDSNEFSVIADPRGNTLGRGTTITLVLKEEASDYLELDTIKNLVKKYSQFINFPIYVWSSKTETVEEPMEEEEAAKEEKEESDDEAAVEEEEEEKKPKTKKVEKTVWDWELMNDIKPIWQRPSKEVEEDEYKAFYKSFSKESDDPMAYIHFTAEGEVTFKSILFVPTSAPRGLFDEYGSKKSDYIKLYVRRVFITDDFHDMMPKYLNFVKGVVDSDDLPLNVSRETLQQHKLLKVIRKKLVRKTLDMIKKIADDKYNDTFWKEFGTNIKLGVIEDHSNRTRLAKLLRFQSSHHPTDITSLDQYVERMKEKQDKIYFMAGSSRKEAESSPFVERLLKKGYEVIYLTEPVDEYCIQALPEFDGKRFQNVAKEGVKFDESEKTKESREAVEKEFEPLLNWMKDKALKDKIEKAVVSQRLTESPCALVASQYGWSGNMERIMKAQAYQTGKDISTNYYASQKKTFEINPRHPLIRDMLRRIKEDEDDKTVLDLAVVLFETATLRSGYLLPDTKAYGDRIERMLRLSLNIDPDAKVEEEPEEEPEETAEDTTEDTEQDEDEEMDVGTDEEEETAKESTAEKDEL

Structure (SMILES) | Kd [1] [µM] | Kd [2] [µM]
COc1ccccc1Cc1cccn1-c1ccc(C(N)=O)c(NC2CCC(O)CC2)c1 (stereo not given) [2-(((1r,4r)-4-hydroxycyclohexyl)amino)-4-(2-(2-methoxybenzyl)-1H-pyrrol-1-yl)benzamide (8m)] | > 100 | 1.15
Cc1ccccc1Cc1cccn1-c1ccc(C(N)=O)c(NC2CCC(O)CC2)c1 (stereo not given) [2-(((1r,4r)-4-hydroxycyclohexyl)amino)-4-(2-(2-methylbenzyl)-1H-pyrrol-1-yl)benzamide (8i)] | > 100 | 4.2
Cc1cccc(-c2cccn2-c2ccc(C(N)=O)c(NC3CCC(O)CC3)c2)c1 (stereo not given) [2-(((1r,4r)-4-hydroxycyclohexyl)amino)-4-(2-(m-tolyl)-1H-pyrrol-1-yl)benzamide (5c)] | > 100 | 9.43
Cc1ccccc1-c1cccn1-c1ccc(C(N)=O)c(NC2CCC(O)CC2)c1 (stereo not given) [2-(((1r,4r)-4-hydroxycyclohexyl)amino)-4-(2-(o-tolyl)-1H-pyrrol-1-yl)benzamide (5b)] | > 100 | 9.9
Cc1ccc(-c2cccn2-c2ccc(C(N)=O)c(NC3CCC(O)CC3)c2)cc1 (stereo not given) [2-(((1r,4r)-4-hydroxycyclohexyl)amino)-4-(2-(p-tolyl)-1H-pyrrol-1-yl)benzamide (5d)] | > 100 | 8.35
NC(=O)c1ccc(-n2cccc2-c2ccccn2)cc1NC1CCC(O)CC1 (stereo not given) [2-(((1r,4r)-4-hydroxycyclohexyl)amino)-4-(2-(pyridin-2-yl)-1H-pyrrol-1-yl)benzamide (5h)] | > 100 | 14
NC(=O)c1ccc(-n2cccc2Cc2ccccn2)cc1NC1CCC(O)CC1 (stereo not given) [2-(((1r,4r)-4-hydroxycyclohexyl)amino)-4-(2-(pyridin-2-ylmethyl)-1H-pyrrol-1-yl)benzamide (8o)] | > 100 | 14
NC(=O)c1ccc(-n2cccc2-c2cccnc2)cc1NC1CCC(O)CC1 (stereo not given) [2-(((1r,4r)-4-hydroxycyclohexyl)amino)-4-(2-(pyridin-3-yl)-1H-pyrrol-1-yl)benzamide (5i)] | > 100 | 5.5
NC(=O)c1ccc(-n2cccc2Cc2cccnc2)cc1NC1CCC(O)CC1 (stereo not given) [2-(((1r,4r)-4-hydroxycyclohexyl)amino)-4-(2-(pyridin-3-ylmethyl)-1H-pyrrol-1-yl)benzamide (8p)] | > 100 | 5.5
NC(=O)c1ccc(-n2cccc2-c2ccncc2)cc1NC1CCC(O)CC1 (stereo not given) [2-(((1r,4r)-4-hydroxycyclohexyl)amino)-4-(2-(pyridin-4-yl)-1H-pyrrol-1-yl)benzamide (5j)] | > 100 | 13.2
NC(=O)c1ccc(-n2cccc2Cc2ccncc2)cc1NC1CCC(O)CC1 (stereo not given) [2-(((1r,4r)-4-hydroxycyclohexyl)amino)-4-(2-(pyridin-4-ylmethyl)-1H-pyrrol-1-yl)benzamide (8q)] | > 100 | 13.2
NC(=O)c1ccc(-n2cccc2CCc2ccccc2)cc1NC1CCC(O)CC1 (stereo not given) [2-(((1r,4r)-4-hydroxycyclohexyl)amino)-4-(2-phenethyl-1H-pyrrol-1-yl)benzamide (9)] | > 100 | > 25
NC(=O)c1ccc(-n2cccc2-c2ccccc2)cc1NC1CCC(O)CC1 (stereo not given) [2-(((1r,4r)-4-hydroxycyclohexyl)amino)-4-(2-phenyl-1H-pyrrol-1-yl)benzamide (5a)] | > 100 | 9.05
NC(=O)c1ccc(-n2cccc2Cc2c(F)cccc2F)cc1N[C@H]1CC[C@H](O)CC1 [4-(2-(2,6-difluorobenzyl)-1H-pyrrol-1-yl)-2-(((1r,4r)-4hydroxycyclohexyl)amino)benzamide (8n)] |  | > 25
NC(=O)c1ccc(-n2cccc2Cc2ccccc2Br)cc1NC1CCC(O)CC1 (stereo not given) [4-(2-(2-bromobenzyl)-1H-pyrrol-1-yl)-2-(((1r,4r)-4-hydroxycyclohexyl)amino)benzamide (8h)] | > 100 | 12.9
NC(=O)c1ccc(-n2cccc2Cc2ccccc2Cl)cc1NC1CCC(O)CC1 (stereo not given) [4-(2-(2-chlorobenzyl)-1H-pyrrol-1-yl)-2-(((1r,4r)-4-hydroxycyclohexyl)amino)benzamide (8b)] | > 100 | 0.83
NC(=O)c1ccc(-n2cccc2-c2ccccc2Cl)cc1NC1CCC(O)CC1 (stereo not given) [4-(2-(2-chlorophenyl)-1H-pyrrol-1-yl)-2-(((1r,4r)-4-hydroxycyclohexyl)amino)benzamide (5e)] | > 100 | 
NC(=O)c1ccc(-n2cccc2Cc2ccccc2F)cc1NC1CCC(O)CC1 (stereo not given) [4-(2-(2-fluorobenzyl)-1H-pyrrol-1-yl)-2-(((1r,4r)-4-hydroxycyclohexyl)amino)benzamide (8e)] | > 100 | 0.72
NC(=O)c1ccc(-n2cccc2Cc2cccc(Cl)c2)cc1NC1CCC(O)CC1 (stereo not given) [4-(2-(3-chlorobenzyl)-1H-pyrrol-1-yl)-2-(((1r,4r)-4-hydroxycyclohexyl)amino)benzamide (8c)] | > 100 | 2.45
NC(=O)c1ccc(-n2cccc2-c2cccc(Cl)c2)cc1NC1CCC(O)CC1 (stereo not given) [4-(2-(3-chlorophenyl)-1H-pyrrol-1-yl)-2-(((1r,4r)-4-hydroxycyclohexyl)amino)benzamide (5f)] | > 100 | 
NC(=O)c1ccc(-n2cccc2Cc2cccc(F)c2)cc1NC1CCC(O)CC1 (stereo not given) [4-(2-(3-fluorobenzyl)-1H-pyrrol-1-yl)-2-(((1r,4r)-4-hydroxycyclohexyl)amino)benzamide (8f)] | > 100 | 4.53
NC(=O)c1ccc(-n2cccc2Cc2cccc(O)c2)cc1NC1CCC(O)CC1 (stereo not given) [4-(2-(3-hydroxybenzyl)-1H-pyrrol-1-yl)-2-(((1r,4r)-4-hydroxycyclohexyl)amino)benzamide (8k)] | > 100 | > 25
NC(=O)c1ccc(-n2cccc2Cc2ccc(Cl)cc2)cc1NC1CCC(O)CC1 (stereo not given) [4-(2-(4-chlorobenzyl)-1H-pyrrol-1-yl)-2-(((1r,4r)-4-hydroxycyclohexyl)amino)benzamide (8d)] | > 100 | > 25
NC(=O)c1ccc(-n2cccc2-c2ccc(Cl)cc2)cc1NC1CCC(O)CC1 (stereo not given) [4-(2-(4-chlorophenyl)-1H-pyrrol-1-yl)-2-(((1r,4r)-4-hydroxycyclohexyl)amino)benzamide (5g)] | > 100 | 10.6
NC(=O)c1ccc(-n2cccc2Cc2ccc(F)cc2)cc1NC1CCC(O)CC1 (stereo not given) [4-(2-(4-fluorobenzyl)-1H-pyrrol-1-yl)-2-(((1r,4r)-4-hydroxycyclohexyl)amino)benzamide (8g)] | > 100 | 8.35
NC(=O)c1ccc(-n2cccc2Cc2ccc(O)cc2)cc1NC1CCC(O)CC1 (stereo not given) [4-(2-(4-hydroxybenzyl)-1H-pyrrol-1-yl)-2-(((1r,4r)-4-hydroxycyclohexyl)amino)benzamide (8l)] | > 100 | 
NC(=O)c1ccc(-n2cccc2Cc2ccccc2)cc1NC1CCC(O)CC1 (stereo not given) [4-(2-benzyl-1H-pyrrol-1-yl)-2-(((1r,4r)-4-hydroxycyclohexyl)amino)benzamide (8a)] | > 100 | 1.13
